{
  "source": "patent US20160362416A1",
  "about": "“ANTIVIRAL COMPOUNDS” (Gilead Sciences, Inc., priority 2012, published 2016)",
  "key": {"[1]": {"tested_on": "stable HCV 1b RLuc replicon cells (genotype 1b Con1 replicon)", "assay": "HCV genotype 1b RLuc replicon reporter assay", "assay_type": "cell-based", "conditions": "Hepatitis C virus; stable genotype 1b Con1 RLuc replicon cells, 72 hours", "procedure": "(§1) Evaluation of cell-based anti-HCV activity: Antiviral potency (EC50) was determined using a Renilla luciferase (RLuc)-based HCV replicon reporter assay. To perform the assay for genotype 1 and 2a JFH-1, stable HCV 1a RLuc replicon cells (harboring a dicistronic genotype 1a H77 replicon that encodes a RLuc reporter), stable HCV lb RLuc replicon cells (harboring a dicistronic genotype 1b Conl replicon that encodes a RLuc reporter), or stable HCV 2a JFH-1 Rluc replicon cells (harboring a dicistronic genotype 2a JFH-1 replicon that encodes a RLuc reporter; with L31 present in NS5A) were dispensed into 384-well plates for EC50 assays. To perform the assay for genotype 2a (with M31 present in NS5A) or 2b, NS5A chimeric genotype 2a JFH-1 replicons that encodes a RLuc-Neo reporter and either genotype 2a J6 strain NS5A gene or genotype 2b MD2b-1 strain NS5A gene (both with M31 present) respectively, were either transiently transfected (t) into Huh-Lunet cells or were established as stably replicating replicon cells (s) is provided. Either cells were dispensed into 384-well plates for EC50 assays. To perform the assay for genotype 3 and 4, NS5A chimeric genotype 1b Conl replicons that encodes a Pi-RLuc reporter and either genotype 3a S52 strain NS5A gene or genotype 4a ED43 strain NS5A gene respectively, were transiently transfected (t) into Huh-Lunet cells, which were subsequently dispensed into 384-well plates. Compounds were dissolved in DMSO at a concentration of 10 mM and diluted in DMSO either manually or using an automated pipeting instrument. Serially 3-fold diluted compounds were either manually mixed with cell culture media and added to the seeded cells or directly added to the cells using an automated instrument. DMSO was used as a negative (solvent; no inhibition) control, and the protease inhibitor ITMN-191 was included at a concentration >100×EC50 as a positive control. 72 hours later, cells were lysed and Renilla luciferase activity quantified as recommended by the manufacturer (Promega-Madison, Wis.). Non-linear regression was performed to calculate EC50 values."}, "[2]": {"tested_on": "stable HCV 1a RLuc replicon cells (genotype 1a H77 replicon)", "assay": "HCV genotype 1a RLuc replicon reporter assay", "assay_type": "cell-based", "conditions": "Hepatitis C virus; stable genotype 1a H77 RLuc replicon cells, 72 hours", "procedure": "as §1"}, "[3]": {"tested_on": "stable HCV 2a JFH-1 Rluc replicon cells (L31 present in NS5A)", "assay": "HCV genotype 2a JFH-1 RLuc replicon reporter assay", "assay_type": "cell-based", "conditions": "Hepatitis C virus, 72 h, read-out: 2a JFH (nM)", "procedure": "as §1"}, "[4]": {"tested_on": "NS5A chimeric genotype 2a JFH-1 replicon with genotype 2a J6 strain NS5A gene (M31)", "assay": "HCV genotype 2a J6 NS5A chimeric replicon assay, transient (t)", "assay_type": "cell-based", "conditions": "Hepatitis C virus, 72 h, read-out: 2a J6 (t) (nM)", "procedure": "as §1"}, "[5]": {"tested_on": "NS5A chimeric genotype 2a JFH-1 replicon with genotype 2b MD2b-1 strain NS5A gene (M31)", "assay": "HCV genotype 2b NS5A chimeric replicon assay, stable (s)", "assay_type": "cell-based", "conditions": "Hepatitis C virus, 72 h, read-out: 2b (s) (nM)", "procedure": "as §1"}, "[6]": {"tested_on": "NS5A chimeric genotype 1b Con1 replicon with genotype 3a S52 strain NS5A gene", "assay": "HCV genotype 3a NS5A chimeric replicon assay", "assay_type": "cell-based", "conditions": "Hepatitis C virus, 72 h, read-out: 3a (nM)", "procedure": "as §1"}, "[7]": {"tested_on": "NS5A chimeric genotype 1b Con1 replicon with genotype 4a ED43 strain NS5A gene", "assay": "HCV genotype 4a NS5A chimeric replicon assay", "assay_type": "cell-based", "conditions": "Hepatitis C virus, 72 h, read-out: 4a (s) (nM)", "procedure": "as §1, with “[…],” for “were transiently transfected (t) into Huh-Lunet cells,”"}, "[8]": {"tested_on": "Y93H in genotype 1a NS5A replicon", "assay": "Resistance mutant replicon assay, genotype 1a NS5A Y93H", "assay_type": "cell-based, HCV", "conditions": "Hepatitis C virus, read-out: 1a Y93H (nM)", "procedure": "as §1\n(§2) To determine the antiviral potency (EC50) against resistance mutants, resistance mutations, including M28T, Q30R, Q30H, Q30E, L31M, Y93C, Y93H, and Y93N in genotype 1a NS5A, Y93H and L31V/Y93H in genotype 1b NS5A, and Y93H for in genotype 3a NS5A, were introduced individually into either 1a Pi-Rluc or 1b Pi-Rluc replicons by site directed mutagenesis. Replicon RNA of each resistant mutant was transiently transfected into Huh-7-derived cured-51 cells and antiviral potency was determined on these transfected cells as described above."}, "[9]": {"tested_on": "Y93N in genotype 1a NS5A replicon", "assay": "Resistance mutant replicon assay, genotype 1a NS5A Y93N", "assay_type": "cell-based, HCV", "conditions": "Hepatitis C virus, read-out: 1a Y93N (nM)", "procedure": "as §1, §2"}, "[10]": {"tested_on": "Y93H in genotype 3a NS5A replicon", "assay": "Resistance mutant replicon assay, genotype 3a NS5A Y93H", "assay_type": "cell-based, HCV", "conditions": "Hepatitis C virus, read-out: 3a Y93H (nM)", "procedure": "as §1, §2"}},
  "data": [
    {"smiles": "COC(=O)N[C@H](C(=O)N1[C@@H](C)CC[C@H]1c1nc2ccc3cc4c(cc3c2[nH]1)OCc1cc(-c2cnc([C@@H]3CC[C@H](C)N3C(=O)[C@H](NC(=O)OC)[C@H]3C[C@@H](C)O[C@@H](C)C3)[nH]2)ccc1-4)C(C)C", "note": "[Example AP, Methyl {(2S)-1-[(2S,5S)-2-(9-{2-[(2S,5S)-1-{(2R)-2-[(2R,6S)-2,6-dimethyltetrahydro-2H-pyran-4-yl]-2-[(methoxycarbonyl)amino]acetyl}-5-methylpyrrolidin-2-yl]-1H-imidazol-5-yl}-1,11-dihydroisochromeno[4′,3′:6,7]naphtho[1,2-d]imidazol-2-yl)-5-methylpyrrolidin-1-yl]-3-methyl-1-oxobutan-2-yl}carbamate]", "values": [
      {"measurement": "EC50", "setting": "[1]", "value": 0.038, "unit": "nM"},
      {"measurement": "EC50", "setting": "[2]", "value": 1.52, "unit": "nM"},
      {"measurement": "EC50", "setting": "[3]", "value": 1.1, "unit": "nM"},
      {"measurement": "EC50", "setting": "[4]", "value": 4.44, "unit": "nM"},
      {"measurement": "EC50", "setting": "[5]", "value": 4.44, "unit": "nM"},
      {"measurement": "EC50", "setting": "[6]", "value": 4.44, "unit": "nM"},
      {"measurement": "EC50", "setting": "[7]", "value": 1.19, "unit": "nM"}
    ]},
    {"smiles": "COC(=O)N[C@H](C(=O)N1[C@@H](C)CC[C@H]1c1ncc(-c2ccc3c(c2)COc2cc4c(ccc5nc([C@@H]6CC[C@H](C)N6C(=O)[C@H](NC(=O)OC)C6C[C@@H](C)O[C@H](C)C6)[nH]c54)cc2-3)[nH]1)C(C)C", "note": "(stereo partly drawn) [Example AR, Methyl {(2S)-1-[(2S,5S)-2-(5-{2-[(2S,5S)-1-{(2R)-2-[(2R,6R)-2,6-dimethyltetrahydro-2H-pyran-4-yl]-2-[(methoxycarbonyl)amino]acetyl}-5-methylpyrrolidin-2-yl]-1,11-dihydroisochromeno[4′,3′:6,7]naphtho[1,2-d]imidazol-9-yl}-1H-imidazol-2-yl)-5-methylpyrrolidin-1-yl]-3-methyl-1-oxobutan-2-yl}carbamate]", "values": [
      {"measurement": "EC50", "setting": "[1]", "value": 0.09, "unit": "nM"},
      {"measurement": "EC50", "setting": "[2]", "value": 8.98, "unit": "nM"},
      {"measurement": "EC50", "setting": "[3]", "value": 2.11, "unit": "nM"},
      {"measurement": "EC50", "setting": "[4]", "value": 5.14, "unit": "nM"},
      {"measurement": "EC50", "setting": "[5]", "value": 15.8, "unit": "nM"},
      {"measurement": "EC50", "setting": "[6]", "value": 8.3, "unit": "nM"},
      {"measurement": "EC50", "setting": "[7]", "value": 4.19, "unit": "nM"}
    ]},
    {"smiles": "COC(=O)N[C@H](C(=O)N1[C@H](c2ncc(-c3ccc4c(c3)COc3cc5c(ccc6nc([C@@H]7C[C@H](C)[C@H](C)N7C(=O)[C@@H](NC(=O)OC)C7C[C@@H](C)O[C@H](C)C7)[nH]c65)cc3-4)[nH]2)C[C@H](C)[C@@H]1C)C1C[C@@H](C)O[C@H](C)C1", "note": "(stereo partly drawn) [Example AZ, Methyl {(1S)-1-[(2R,6R)-2,6-dimethyltetrahydro-2H-pyran-4-yl]-2-[(2S ,3S,5S)-5-(5-{2-[(2S,4S,5S)-1-{(2S)-2-[(2R,6R)-2,6-dimethyltetrahydro-2H-pyran-4-yl]-2-[(methoxycarbonyl)amino]acetyl}-4,5-dimethylpyrrolidin-2-yl]-1,11-dihydroisochromeno[4′,3′:6,7]naphtho[1,2-d]imidazol-9-yl}-1H-imidazol-2-yl)-2,3-dimethylpyrrolidin-1-yl]-2-oxoethyl}carbamate]", "values": [
      {"measurement": "EC50", "setting": "[1]", "value": 0.031, "unit": "nM"},
      {"measurement": "EC50", "setting": "[2]", "value": 0.021, "unit": "nM"},
      {"measurement": "EC50", "setting": "[3]", "value": 0.01, "unit": "nM"},
      {"measurement": "EC50", "setting": "[5]", "value": 0.024, "unit": "nM"},
      {"measurement": "EC50", "setting": "[6]", "value": 0.025, "unit": "nM"},
      {"measurement": "EC50", "setting": "[7]", "value": 0.013, "unit": "nM"},
      {"measurement": "EC50", "setting": "[8]", "value": 0.025, "unit": "nM"},
      {"measurement": "EC50", "setting": "[9]", "value": 0.059, "unit": "nM"},
      {"measurement": "EC50", "setting": "[10]", "value": 4.52, "unit": "nM"}
    ]},
    {"smiles": "COC(=O)N[C@H](C(=O)N1[C@@H](c2ncc(-c3ccc4c(c3)COc3cc5c(ccc6nc([C@@H]7C[C@H](C)[C@H](C)N7C(=O)[C@@H](NC(=O)OC)C7C[C@@H](C)O[C@H](C)C7)[nH]c65)cc3-4)[nH]2)C[C@@H](C)[C@H]1C)C1C[C@@H](C)O[C@H](C)C1", "note": "(stereo partly drawn) [Example BB, Methyl {(1S)-1-[(2R,6R)-2,6-dimethyltetrahydro-2H-pyran-4-yl]-2-[(2R,3R,5R)-5-(5-{2-[(2S,4S,5S)-1-{(2S)-2-[(2R,6R)-2,6-dimethyltetrahydro-2H-pyran-4-yl]-2-[(methoxycarbonyl)amino]acetyl}-4,5-dimethylpyrrolidin-2-yl]-1,11-dihydroisochromeno[4′,3′:6,7]naphtho[1,2-d]imidazol-9-yl}-1H-imidazol-2-yl)-2,3-dimethylpyrrolidin-1-yl]-2-oxoethyl}carbamate]", "values": [
      {"measurement": "EC50", "setting": "[1]", "value": 0.205, "unit": "nM"},
      {"measurement": "EC50", "setting": "[2]", "value": 3.85, "unit": "nM"},
      {"measurement": "EC50", "setting": "[3]", "value": 2.96, "unit": "nM"},
      {"measurement": "EC50", "setting": "[5]", "value": 10.6, "unit": "nM"},
      {"measurement": "EC50", "setting": "[6]", "value": 10.3, "unit": "nM"},
      {"measurement": "EC50", "setting": "[7]", "value": 2.54, "unit": "nM"},
      {"measurement": "EC50", "setting": "[8]", "value": 20.2, "unit": "nM"},
      {"measurement": "EC50", "setting": "[9]", "value": 29.6, "unit": "nM"}
    ]}
  ]
}
